In PMC11740379, “Novel Enyne-Modified 1,4-Thiazepines as Epidermal Growth Factor Receptor Inhibitors: Anticancer and Computational Studies” (ACS Omega, 2024):
Read-outs that look alike come from different tables or passages of the source.

How the values were obtained:
[1] = XTT cytotoxicity assay, non-tumorigenic cells; type: cell-based, human; conditions: human, HEK-293 cells (nontumorigenic), read-out: cell viability
Method: (§1) Human cell lines for breast cancer (MCF-7), lung cancer (A549), prostate cancer (PC-3), and nontumorigenic HEK-293 were sourced from the Health Protection Agency (U.K.) and the Interlab Cell Line Collection (Italy). The cells were cultured in RPMI medium (Sigma) supplemented with 10% heat-inactivated fetal bovine serum, 1% penicillin, and 1% L-glutamine, and incubated in a humidified CO2 atmosphere at 37 °C.
(§2) To evaluate the cytotoxic effects of TZEPs, which were dissolved in dimethyl sulfoxide (DMSO), the XTT assay (2,3-bis(2-methoxy-4-nitro-5-sulfophenyl)-2H-tetrazolium-5-carboxanilide) was employed. Cells were plated in 96-well plates at a density of 10^4 cells per well and exposed to varying concentrations of TZEPs (ranging from 1 to 250 μM) for 24, 48, and 72 h. Following the incubation, 100 μL of XTT was added to each well, and the plates were incubated for an additional 4 h at 37 °C. The resulting color change was measured by recording the absorbance at 570 nm using a microplate reader (Tecan).
(§3) The IC50 values, which indicate the concentration of the compound required to inhibit 50% of cancer cell proliferation, were determined using Biosoft CalcuSyn 2.1 software. […] Conversely, an SI less than 1 means the drug is more toxic to normal cells than to target cells, which is undesirable in therapeutic contexts. In the literature, a selectivity index of 2 or higher is generally considered significant, implying that the compound selectively targets diseased cells with relatively low toxicity to healthy cells.[15]

HEK-293 cells = experiment: XTT cytotoxicity assay, non-tumorigenic cells; type: cell-based, human; conditions: Homo sapiens, HEK293; XTT assay; exposure time of the IC50 not stated (24, 48, 72 h tested)
Method: as §1, §2, §3

A549 cells [2] = experiment: XTT cytotoxicity assay, lung cancer cells; type: cell-based, human; conditions: for IC50: A549
Method: The cells were cultured in RPMI medium (Sigma) supplemented with 10% heat-inactivated fetal bovine serum, 1% penicillin, and 1% L-glutamine, and incubated in a humidified CO2 atmosphere at 37 °C.
as §2, with “Cells were plated in 96-well plates at a density of 10^4 cells per well and exposed to varying concentrations of TZEPs (ranging from 1 to 250 μM) for 24, 48, and 72 h.” left out
Conversely, an SI less than 1 means the drug is more toxic to normal cells than to target cells, which is undesirable in therapeutic contexts.

A549 cells [3] = experiment: Annexin V-FITC/PI apoptosis detection by flow cytometry; type: cell-based, human; conditions: A549, IC50 concentration, 72 h
Text: (§4) Annexin V, a protein with a high affinity for phosphatidylserine (PS), is pivotal in detecting apoptosis. Normally, PS is located in the inner leaflet of the plasma membrane, but during apoptosis, it moves to the outer leaflet, making it a key marker for apoptotic cells.[16] Annexin V binds specifically to PS on the surface of these cells. A secondary dye like propidium iodide (PI) is used to distinguish apoptotic cells from viable ones with intact membranes. We can identify and quantify viable cells (annexin V–, PI–) and apoptotic cells (annexin V+, PI+) by analyzing fluorescence patterns. Here, we employed the FITC Annexin V Apoptosis Detection Kit I from BD Pharmingen. Cells were seeded at a density of 10^6 cells per well in a 6-well plate and exposed to IC50 concentration of TZEP7 for 72 h. Following treatment, cells were rinsed with cold PBS, resuspended in 1 mL of 1× Binding Buffer, and stained with 5 μL of Annexin V FITC and 5 μL of PI. After vortexing, the samples were incubated at room temperature (25 °C) for 15 min in the dark. Postincubation, 400 μL of 1× Binding Buffer was added to each sample, and apoptosis was measured using a BD Accuri C6 Flow Cytometer. Cisplatin was used as an apoptosis-inducing reference drug.

MCF-7 cells = experiment: as above; type: cell-based, human; conditions: MCF-7, IC50 concentration, 72 h
Text: as §4

PC-3 cells = experiment: as above; type: cell-based, human; conditions: PC-3, IC50 concentration, 72 h
Text: as §4

EGFRWT kinase = EGFRWT kinase (Homo sapiens, UniProt P00533); experiment: EGFR kinase inhibition assay (HTRF KinEASE-TK); type: biochemical
EGFRWT kinase, sequence (P00533 25-1210): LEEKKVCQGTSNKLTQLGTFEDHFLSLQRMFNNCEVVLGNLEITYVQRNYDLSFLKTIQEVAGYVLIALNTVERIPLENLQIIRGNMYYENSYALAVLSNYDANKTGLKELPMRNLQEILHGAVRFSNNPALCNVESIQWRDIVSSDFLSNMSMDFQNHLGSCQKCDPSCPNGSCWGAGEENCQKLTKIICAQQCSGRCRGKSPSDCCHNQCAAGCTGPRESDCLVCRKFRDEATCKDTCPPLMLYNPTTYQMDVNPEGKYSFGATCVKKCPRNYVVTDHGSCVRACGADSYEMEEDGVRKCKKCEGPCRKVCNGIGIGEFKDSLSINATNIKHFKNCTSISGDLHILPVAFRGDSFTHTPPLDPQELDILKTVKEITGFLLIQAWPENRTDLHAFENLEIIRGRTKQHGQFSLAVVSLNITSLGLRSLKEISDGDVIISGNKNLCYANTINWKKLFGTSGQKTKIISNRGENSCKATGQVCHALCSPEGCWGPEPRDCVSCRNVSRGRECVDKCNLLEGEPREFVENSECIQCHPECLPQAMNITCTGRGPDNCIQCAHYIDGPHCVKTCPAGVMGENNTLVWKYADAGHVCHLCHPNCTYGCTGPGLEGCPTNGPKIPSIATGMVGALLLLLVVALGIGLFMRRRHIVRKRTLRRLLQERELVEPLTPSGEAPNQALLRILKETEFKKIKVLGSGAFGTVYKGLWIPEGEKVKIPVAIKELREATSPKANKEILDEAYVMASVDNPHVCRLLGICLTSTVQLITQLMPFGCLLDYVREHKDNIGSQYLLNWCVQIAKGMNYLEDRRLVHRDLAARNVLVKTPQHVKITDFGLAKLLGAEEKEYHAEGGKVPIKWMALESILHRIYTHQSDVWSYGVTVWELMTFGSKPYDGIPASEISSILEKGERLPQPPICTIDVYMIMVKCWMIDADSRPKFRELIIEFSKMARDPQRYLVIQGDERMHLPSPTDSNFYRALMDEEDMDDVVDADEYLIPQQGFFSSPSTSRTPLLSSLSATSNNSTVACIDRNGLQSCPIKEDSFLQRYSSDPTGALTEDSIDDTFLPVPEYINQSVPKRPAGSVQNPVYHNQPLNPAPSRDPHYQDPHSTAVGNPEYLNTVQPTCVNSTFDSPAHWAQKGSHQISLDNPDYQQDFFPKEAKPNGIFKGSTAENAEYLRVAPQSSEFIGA
Method: The inhibitory effects of the target compounds on various EGFR kinases were assessed using a homogeneous time-resolved fluorescence (HTRF) assay, employing the HTRF KinEASE-TK kit (Cat# 62TK0PEC, Cisbio).[18] TZEP7 was tested at a range of diluted concentrations in the presence of 1% dimethyl sulfoxide (DMSO), with the kinase and compounds preincubated for 5 min. The reactions were initiated by adding ATP and TK-substrate-biotin, followed by a 60 min incubation at room temperature. […] After a 1 h incubation of the plate, readings were taken on a microplate reader under standard HTRF conditions. IC50 values were calculated using GraphPad Prism 5.0 software. Each reaction was duplicated, and at least three independent determinations were conducted. The data were analyzed using GraphPad Prism.

EGFRT790M kinase = EGFRT790M kinase (Homo sapiens, UniProt P00533, T790M); experiment: EGFR kinase inhibition assay (HTRF KinEASE-TK); type: biochemical
EGFRT790M kinase, sequence (P00533 25-1210 T790M): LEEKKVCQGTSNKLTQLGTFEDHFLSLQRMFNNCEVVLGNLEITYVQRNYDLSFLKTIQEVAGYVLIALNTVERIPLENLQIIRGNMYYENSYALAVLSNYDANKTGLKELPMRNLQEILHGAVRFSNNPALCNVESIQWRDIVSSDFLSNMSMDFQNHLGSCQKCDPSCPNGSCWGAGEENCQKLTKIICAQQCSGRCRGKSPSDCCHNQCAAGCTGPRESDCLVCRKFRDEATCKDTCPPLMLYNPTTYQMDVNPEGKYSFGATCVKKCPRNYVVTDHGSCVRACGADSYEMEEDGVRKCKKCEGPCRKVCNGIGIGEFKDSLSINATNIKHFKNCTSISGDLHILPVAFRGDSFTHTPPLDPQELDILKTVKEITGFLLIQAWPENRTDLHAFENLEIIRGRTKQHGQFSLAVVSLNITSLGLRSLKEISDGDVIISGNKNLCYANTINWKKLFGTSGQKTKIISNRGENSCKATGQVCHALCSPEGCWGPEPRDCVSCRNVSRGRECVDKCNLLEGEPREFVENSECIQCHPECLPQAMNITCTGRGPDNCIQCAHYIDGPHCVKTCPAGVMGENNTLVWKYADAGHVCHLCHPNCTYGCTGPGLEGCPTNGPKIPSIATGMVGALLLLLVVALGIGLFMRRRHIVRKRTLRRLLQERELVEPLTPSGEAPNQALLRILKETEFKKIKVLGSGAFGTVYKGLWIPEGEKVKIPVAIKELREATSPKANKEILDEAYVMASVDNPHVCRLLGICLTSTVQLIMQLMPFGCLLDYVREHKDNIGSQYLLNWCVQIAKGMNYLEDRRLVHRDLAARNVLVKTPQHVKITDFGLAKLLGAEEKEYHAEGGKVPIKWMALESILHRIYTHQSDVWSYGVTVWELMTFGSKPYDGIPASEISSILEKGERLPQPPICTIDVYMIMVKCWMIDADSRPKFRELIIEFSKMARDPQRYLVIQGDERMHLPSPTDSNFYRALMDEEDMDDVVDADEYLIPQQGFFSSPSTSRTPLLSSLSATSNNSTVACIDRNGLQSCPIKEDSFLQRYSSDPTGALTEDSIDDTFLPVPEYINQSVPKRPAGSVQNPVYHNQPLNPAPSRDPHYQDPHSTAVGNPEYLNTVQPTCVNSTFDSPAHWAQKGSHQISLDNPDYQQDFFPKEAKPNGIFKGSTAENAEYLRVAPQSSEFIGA
Method: The inhibitory effects of the target compounds on various EGFR kinases were assessed using a homogeneous time-resolved fluorescence (HTRF) assay, employing the HTRF KinEASE-TK kit (Cat# 62TK0PEC, Cisbio).[18] TZEP7 was tested at a range of diluted concentrations in the presence of 1% dimethyl sulfoxide (DMSO), with the kinase and compounds preincubated for 5 min. The reactions were initiated by adding ATP and TK-substrate-biotin, followed by a 60 min incubation at room temperature. The reactions were then stopped using a stop buffer containing 62.5 nM Strep-XL665 and TK antibody (Ab)-Cryptate. After a 1 h incubation of the plate, readings were taken on a microplate reader under standard HTRF conditions. IC50 values were calculated using GraphPad Prism 5.0 software. Each reaction was duplicated, and at least three independent determinations were conducted. The data were analyzed using GraphPad Prism.

[4] = XTT cytotoxicity assay, non-tumorigenic cells; type: cell-based; conditions: human, HEK-293 cells (nontumorigenic); HEK293, 0.1 μM; read-out: cell viability

IC50 (EGFRWT kinase): 380 nM
IC50 (EGFRWT kinase; A549 cells): 360 nM
IC50 (EGFRT790M kinase): 280 nM
IC50 (EGFRT790M kinase; A549 cells): 220 nM
IC50 (EGFRT790M kinase; MCF-7 cells): 290 nM
SMILES: Cc1cc(C2=NCC(=CC#Cc3ccccc3)SC(c3ccc(Cl)cc3)=C2)ccc1F [TZEP7]
viability at 1 µM ([1]; HEK293, 1 μM): 57.1%
viability at 10 µM ([1]; HEK293, 10 μM): 44.1%
viability at 50 µM ([1]; HEK293, 50 μM): 31.3%
viability at 100 µM ([1]; HEK293, 100 μM): 24.2%
IC50 (HEK-293 cells): 54300 ± 900 nM
IC50 (A549 cells [2]; Homo sapiens, XTT assay, exposure time of the IC50 not stated (24, 48, 72 h tested), read-out: IC50, lung cancer (A549)): 12700 ± 2000 nM
IC50 (A549 cells [2]; Homo sapiens, dose–response curve of Figure 2, read-out: IC50, A549, dose–response curve): 12100 nM
viability at 0.1 µM (A549 cells [2]; Homo sapiens, A549, 0.1 μM, read-out: cell viability): 68%
viability at 1 µM (A549 cells [2]; Homo sapiens, A549, 1 μM, read-out: cell viability): 53%
viability at 10 µM (A549 cells [2]; Homo sapiens, A549, 10 μM, read-out: cell viability): 40%
viability at 50 µM (A549 cells [2]; Homo sapiens, A549, 50 μM, read-out: cell viability): 30%
viability at 100 µM (A549 cells [2]; Homo sapiens, A549, 100 μM, read-out: cell viability): 10%
Selectivity index (SI), lung cancer (A549) (A549 cells [2]; versus normal cells HEK-293): 4.27
cells in early apoptosis (A549 cells [3]): 15.1%
cells in late apoptosis (A549 cells [3]): 68.7%
cells in early apoptosis (MCF-7 cells): 22.4%
cells in late apoptosis (MCF-7 cells): 68.5%
cells in early apoptosis (PC-3 cells): 13.7%
cells in late apoptosis (PC-3 cells): 65.6%
viability at 0.1 µM [4]: 87.3%
